Data taken from patent publication US4127722A, “Benzhydrylsulphinyl derivatives” (Laboratoire L. Lafon, priority 1975, dated 1978).
“Also recorded” adds a separate entry of the source. Counter-ions that a name gives are not always drawn.

How the values were obtained:
carrageenin oedema = assay: Carrageenin oedema; format: in vivo
central nervous system = assay: Pharmacological tests: action on the central nervous system, overall profile; format: in vivo
Experimental: The results of the pharmacological tests which were carried out have been summarised below.

passes which entail pain = assay: Four plate test; format: in vivo, mice; conditions: mice
Experimental: (§1) The test is carried out on batches of 20 mice, 30 minutes after the administration of CRL 40,028.

[1] = General behaviour / psychopharmacological spectrum (species not stated); format: in vivo
[2] = test system: stereotype behaviour induced by amphetamine; assay: Interaction with amphetamine; format: in vivo, rats
Experimental: Amphetamine (2 mg/kg, given intraperitoneally) is injected 30 minutes after the administration of CRL 40,028 (6 rats/dose).

spontaneous motility = assay: Spontaneous motility (actimetry); format: in vivo, mice; conditions: for % relative to the control animals / % variation: rays crossed
Experimental: CRL 40,028 increases the motor activity of the animals from a dose of 16 mg/kg onwards. As this effect is representative of the activity of CRL 40,028, attempts have been made to obtain its kinetics more precisely. […]

[3] = Toxicity, gastric administration, mice; conditions: mouse, in vivo, po
groups of mice = assay: Group toxicity; conditions: in words, comparison with amphetamine-type compounds
[4] = test system: convulsive effects of the electric shock; assay: Electric shock; format: in vivo, mice
Experimental: as §1

[5] = test system: hypothermia, trembling and peripheral cholinergic symptoms brought about by oxotremorine; assay: Interaction with oxotremorine; format: in vivo, mice
Experimental: Mice (6 per dose) are given an intraperitoneal injection of 0.5 mg/kg of oxotremorine 30 minutes after the administration of CRL 40,028.

residual motility = assay: Residual motility; format: in vivo, mice; conditions: animals becoming accustomed to the chamber
[6] = test system: stereotype behaviour caused by apomorphine; assay: Interaction with apomorphine; format: in vivo, rats
Experimental: Batches of 6 rats are given CRL 40,028 30 minutes after the subcutaneous injection of 0.5 mg/kg of apomorphine.

[7] = test system: motor activity after anoxia; assay: Motor recovery after hypoxia aggression; format: in vivo, mice
[8] = Toxicity, intraperitoneal administration, mice; format: in vivo; conditions: mouse, in vivo, ip, intraperitoneal administration
mice [9] = assay: Toxicity, intraperitoneal administration, mice; format: in vivo; conditions: i.p., 256 mg/kg, 512 mg/kg and 1,024 mg/kg
mice [10] = assay: General behaviour, mice; format: in vivo; conditions: at all the doses studied (toxicity test)
[11] = test system: hypothermia and ptosis produced by reserpine; assay: Interaction with reserpine; format: in vivo, mice
Experimental: Batches of 6 mice are given an intraperitoneal injection of reserpine (2.5 mg/kg) 4 hours before the administration of CRL 40,028.

[O-][S+](CCC1=NCCN1)C(c1ccccc1)c1ccccc1 (stereo not shown) [CRL 40,066, 2-(2-Benzhydrylsulphinyl-ether)-imidazoline hydrochloride]
anti-oedema effect (carrageenin oedema): an anti-oedema effect | action on the central nervous system (central nervous system; in words): an effect on the central nervous system

O=C(C[S+]([O-])C(c1ccccc1)c1ccccc1)NO (stereo not shown) [CRL 40,028, benzhydrylsulphinylacetohydroxamic acid]
number of passes which entail pain (passes which entail pain; 4.1 mg/kg): a modest decrease in the number of such passes | number of passes which entail pain (passes which entail pain; 256 and 64 mg/kg): an increase in the number of passes which entail pain | decrease in motility (passes which entail pain; at no dose): At no dose does CRL 40,028 bring about a major decrease in motility | stereotypies ([1]; Table IV, graded symbols): 0 | stimulant properties (overall) ([1]; animal psychopharmacology): stimulant properties, namely causing excitation and hyper-reactivity, and hypermotility | stereotypies ([1]; in words, comparison with amphetamine-type compounds): absence of stereotypies | Boosting action on amphetamine ([2]; Table IV, graded symbols): 0 | boosting of the effect of amphetamine ([2]; in words): does not boost the action of amphetamine; also recorded: absence of boosting | effect on stereotype behaviour induced by amphetamine ([2]; rats, amphetamine 2 mg/kg i.p.): does not produce an overall change in the stereotype behaviour induced by amphetamine | minimal effective dose (spontaneous motility; Mus musculus, spontaneous motility, read-out: dose from which motor activity is increased): ≥ 16 mg/kg | time in which hypermotility appears (spontaneous motility; mice, 64 mg/kg): less than 30 minutes | time in which hypermotility disappears (spontaneous motility; mice, 64 mg/kg): 4 h | time of maximum hypermotility (spontaneous motility; mice, 64 mg/kg): one | Number of rays crossed in 30 minutes (spontaneous motility; mice, 64 mg/kg, - 30 mins): 311 | Number of rays crossed in 30 minutes (spontaneous motility; mice, 64 mg/kg, - 1 hr): 424 | Number of rays crossed in 30 minutes (spontaneous motility; mice, 64 mg/kg, - 2 hrs): 376 | Number of rays crossed in 30 minutes (spontaneous motility; mice, 64 mg/kg, - 4 hrs): 234 | % relative to the control animals (spontaneous motility; mice, 64 mg/kg, - 30 mins): 155% | % variation (spontaneous motility; mice, 64 mg/kg, - 30 mins): +55% | % relative to the control animals (spontaneous motility; mice, 64 mg/kg, - 1 hr): 212% | % variation (spontaneous motility; mice, 64 mg/kg, - 1 hr): +112% | % relative to the control animals (spontaneous motility; mice, 64 mg/kg, - 2 hrs): 188% | % variation (spontaneous motility; mice, 64 mg/kg, - 2 hrs): +88% | % relative to the control animals (spontaneous motility; mice, 64 mg/kg, - 4 hrs): 117% | % variation (spontaneous motility; mice, 64 mg/kg, - 4 hrs): +17% | LD50 [3]: 1950 mg/kg | toxicity in the groups of mice (groups of mice): virtual absence of specific (?) toxicity | aggravation of the effects of electric shock ([4]; comparison with caffeine): absence of an aggravation | antagonism against convulsive effects of the electric shock ([4]; mice, only at 256 mg/kg): a very moderate antagonism | Anti-oxotremorine action (peripheral) ([5]; Table IV, graded symbols): 0 | effect on hypothermic effect of oxotremorine ([5]; mice, 64 mg/kg): not | effect on hypothermic effect of oxotremorine ([5]; mice, 256, 16 and 4 mg/kg): moderately opposes the hypothermic effect of oxotremorine | effect on trembling brought about by oxotremorine ([5]; mice, at all the doses): moderately reduces | effect on peripheral cholinergic symptoms (salivation, lachrymation, defaecation) ([5]; mice, oxotremorine 0.5 mg/kg i.p.): does not alter the increase in salivation, lachrymation and defaecation | effect on residual motility (residual motility): stimulating effect | Boosting action on apomorphine ([6]; Table IV, graded symbols): 0 | boosting of the effect of apomorphine ([6]; in words, comparison with amphetamine / caffeine): absence of boosting of the effect of apomorphine | activity on the stereotype behaviour caused by apomorphine ([6]; rats, apomorphine 0.5 mg/kg s.c.): does not exert any activity | aggravation of the effects of hypoxia ([7]; comparison with caffeine): absence of an aggravation | motor activity after anoxia ([7]; mice, 512, 128 and 32 mg/kg, vs control animals): markedly greater motor activity than that of the control animals | LD50 [8]: ≤ 2050 mg/kg | mortality (mice [9]): no mortality was observed | excitation of the animal (mice [10]): excitation of the animal was observed | solubility (Solubility in water): < 1000 µg/mL | Anti-reserpine action (ptosis) ([11]; Table IV, graded symbols): 0 | anti-reserpine effect ([11]; in words): absence of a marked antagonism to reserpine | hypothermia due to reserpine ([11]; in words): absence of a marked antagonism to hypothermia brought about by reserpine | effect on hypothermic effect of reserpine ([11]; mice, 256 and 64 mg/kg, reserpine 2.5 mg/kg i.p.): partially counteracts the hypothermic effect of reserpine | effect on ptosis produced by reserpine ([11]; mice, reserpine 2.5 mg/kg i.p.): does not resolve the palpebral ptosis | psychostimulant profile (central nervous system; comparison with amphetamine and caffeine): a psychostimulant which comes closer to caffeine
